≈ marks a conversion by molar mass, not a printed value. Like-named read-outs stand apart in the source and are kept apart here.
Tests used:
[1] = system: Escherichia coli ATCC 25922; assay: MIC and MBC measurement; format: cell-based; settings: E. coli (ATTC 25922)
Excerpt: (§1) General: Microorganisms. Reference strains were purchased from the American Type Culture Collection (Rockville, MD) or Bactrol disks from Difeo Laboratories (Detroit, MI). The following specific ATCC strains were used: 10798 Escherichia coli, 25922 Escherichia coli, 13883 Klebsiella pneumoniae, 27853 Pseudomonas aeruginosa, 14028 Salmonella typhimurium, 29212 Enterococcus faecalis, 25923 Staphylococcus aureus, 19615 Streptococcus pyogenes, and 90028 Candida albicans. Bacterial strains were maintained on Mueller-Hinton agar plates, and Candida albicans was maintained on Sabouraud Dextrose agar plates.
(§2) Tryptic soy broth (TSB) was made by dissolving 27.5 grams of tryptic soy broth without dextrose (DIFCO Laboratories) in 1 liter of deionized water and sterilizing at 121 °C for 15 minutes. Solid agar (TSA) plates were made by dissolving 6.4 grams of tryptic soy broth and 12 grams of agar (purified grade, Fischer Scientific) in 800 mL of deionized water and sterilizing at 121 °C for 20 minutes. Aliquots (20 mL) of the homogeneous solution were then poured in sterile plastic petri dishes (100 x 15 mm, Fisher Scientific). Solutions of compounds were made by dissolving the HCl salt of the respective compound into an appropriate amount of deionized and sterilized water followed by microfiltration.
(§3) Aliquots of 1 mL of the suspension were added to test tubes containing 1 mL TSB and incrementally varied concentrations of cholic acid derivatives and/or erythromycin or novobiocin. In the sensitization experiments, erythromycin or novobiocin were added 15 minutes later than the cholic acid derivatives. The samples were subjected to stationary incubation at 37°C for 24 hours. Sample turbidity was determined by measuring absorption at 760 nm (HP 8453 UV-Visible Chemstation, Hewlett Packard). Additionally, an alliquot from each of the samples showing no measurable turbidity was subcultured on TSA plates (alliquots were diluted to provide fewer than 300 CFU). Colonies that grew on the subculture after overnight incubation were counted and the number of CFU/mL in the samples were calculated. The calculated values were compared to the number of CFU/mL in the original inoculum. […]

[2] = system: Staphylococcus aureus ATCC 25923; assay: MIC and MBC measurement; format: cell-based; settings: Table 16 (MIC^a), S. aureus (ATTC 25923)
Excerpt: as §1, §2, §3

[3] = Minimum hemolytic concentration (MHC); format: cell-based; settings: Table 16
Method: Minimum inhibition concentrations (MIC) and minimum hemolytic concentrations (MHC) were measured as described in Li et al., Antimicrob. Agents. Chemother., 1999, 43, 1347. […]

[4] = system: Escherichia coli ATCC 25922; assay: Sensitization to erythromycin, novobiocin or rifampicin (permeabilization, FIC); settings: Table 16; with E. coli
[5] = Stability (half-lives) in phosphate buffer, decomposition observed via HPLC; format: physicochemical; settings: 50 mM phosphate buffer, room temperature
Method: Compounds 352 - 354 were dissolved in 50 mM phosphate buffered water (pH 2.0, 7.0 or 12.0) at approximately 10 mM concentrations. […] These compounds were used since they contain a chromophore that facilitated monitoring of decomposition by absorption methods common in the HPLC apparatus used.

Gram-negative bacteria = assay: MIC and permeabilization measurements, strain not stated (Table 14, Fig. 5); settings: in words
[6] = Escherichia coli, ATCC25922, Table 16 (MIC^b), read-out: MIC
[7] = Staphylococcus aureus, ATCC25923, read-out: MIC

MIC [1, 6] [µg/mL] | MIC [2, 7] [µg/mL] | Structure (SMILES) | MHC [3] [µg/mL] | c: concentration of the compounds required to lower the MIC of erythromycin from 30 to 1 µg/mL [4] [µg/mL] | also measured
1 (≈ 1.45 µM) | 1.8 (≈ 2.6 µM) | CCCCCCCCOC(=O)CC[C@@H](C)[C@H]1CC[C@H]2[C@@H]3[C@H](OC(=O)CN)C[C@@H]4C[C@H](OC(=O)CN)CC[C@]4(C)[C@H]3C[C@H](OC(=O)CN)[C@]12C [Compound 341] | 4.0 | 0.7 | 
 |  | C[C@H](CCCN(C)Cc1ccccc1)[C@H]1CC[C@H]2[C@@H]3[C@H](OC(=O)CCN)C[C@@H]4C[C@H](OC(=O)CCN)CC[C@]4(C)[C@H]3C[C@H](OC(=O)CCN)[C@]12C [Compound 353] |  |  | stabilities (half-lives) pH 2.0 ([5]; pH 2.0, approximately 10 mM): >37 days; stabilities (half-lives) pH 7.0 ([5]; pH 7.0, approximately 10 mM): 37 days; stabilities (half-lives) pH 12.0 ([5]; pH 12.0, approximately 10 mM): <30 minutes
 |  | C[C@H](CCCO)[C@H]1CC[C@H]2[C@@H]3[C@H](NC(=O)CCCCCN)C[C@@H]4C[C@H](NC(=O)CCCCCN)CC[C@]4(C)[C@H]3C[C@H](NC(=O)CCCCCN)[C@]12C [Compound 211] |  |  | activity as a permeabilizer (Gram-negative bacteria): less active than 209c as a permeabilizer
3.5 (≈ 4.51 µM) | 1.2 (≈ 1.55 µM) | CCCCCCCCOC(=O)CC[C@@H](C)[C@H]1CC[C@H]2[C@@H]3[C@H](OC(=O)CCCN)C[C@@H]4C[C@H](OC(=O)CCCN)CC[C@]4(C)[C@H]3C[C@H](OC(=O)CCCN)[C@]12C [Compound 343] | <10 | 3.5 | 
60 | 15 | C[C@H](CCC(=O)OCC[N+](C)(C)C)[C@H]1CC[C@H]2[C@@H]3[C@H](OC(=O)CN)C[C@@H]4C[C@H](OC(=O)CN)CC[C@]4(C)[C@H]3C[C@H](OC(=O)CN)[C@]12C [Compound 324] | >200 | 10 | 
 |  | C[C@H](CCC(=O)O)[C@H]1CC[C@H]2[C@@H]3[C@H](OC(=O)CN)C[C@@H]4C[C@H](OC(=O)CN)CC[C@]4(C)[C@H]3C[C@H](OC(=O)CN)[C@]12C [Compound 327] | >100 | >100 | MIC ([1]; Table 16, second MIC column (MIC^b)): >100 µg/mL; MIC [2]: >100 µg/mL

— EP1311531B1, “STEROID DERIVED ANTIBIOTICS” (Brigham Young University, priority 2000, dated 2002)
